Where “and” joins values, the source holds several entries; their conditions need not be identical. Equal values may be shown once. Read-outs that look alike come from different tables or passages of the source.

The nature of series [1]: Estimating the maximum dissociated fraction of G and T in vivo (Eq. 1, Eq. 2). More on the design: species or system BALB/c mice. To be noted: for maximum dissociated fraction (fdiss. max), Eq. 1: from plasma AUCs of DcNP and CrEL. The text has this: To estimate a maximum dissociated fraction (fdiss. max) of GT from DcNPs in vivo, a non-compartmental approach based on the plasma AUCs of equi-molar injections of DcNP and CrEL formulations was first utilized: […]
In Eq. 1, it is assumed that systemic clearance of G or T administered as DcNPs only occurs after drug dissociates from the particles, and dissociated drug has the same clearance pathways as the free drug control (CrEL). This non compartmental approach also assumes that drug clearance occurs solely in the central compartment. For the two drugs of interest, T is mainly metabolized in the liver by CYP3A4 and CYP2C8 but G is metabolized by ubiquitous cytidine deaminase (CDA). To understand the impact of the ubiquitous metabolism of G on its pharmacokinetic profile, the plasma concentration of the primary metabolite of G, dFdU, was used as a biomarker for dissociated drug. […] The equation below then provides an estimate of the fraction of the G dose metabolized to dFdU. If the calculated fraction metabolized (fdiss.G→dFdU) from Eq. 2 equals the fdiss. max from Eq. 1, it can be surmised that once G is released from DcNPs at all locations in the body it exchanges readily with the circulating G and subsequently undergoes metabolism (i.e., metabolism of all dissociated drug occurs in the central compartment). However, if some or all of the drug released from DcNPs in peripheral tissue is immediately metabolized to dFdU without exchanging with G in circulation, the fdiss.G→dFdU estimates from Eq. 2 would be expected to exceed the fdiss. max from Eq. 1 (i.e., dissociated drug is metabolized in both the central and peripheral compartments).
G AUC0→∞,CrEL is the plasma AUC of G given in free drug form. G AUC0→∞,DcNP is the total AUCs of associated and dissociated G given in DcNP form. dFdU AUC0→∞, CrEL is the AUC of dFdU formed after administration of free G. dFdU AUC0→∞,DcNP is the AUC of dFdU after dosing G in DcNP, which reflects the amount of dissociated G released from DcNPs and available for metabolic conversion. fdiss.G→dFdU represents the fraction of DcNP-dose that is released as free drug and available for conversion to dFdU by CDA.
The assumptions underlying Eq. 2 are as follows: [1] Dissociated (free) G, but not associated G, is readily available for metabolism by CDA. Dissociated G is rapidly and extensively metabolized to dFdU by CDA. […] A detailed pharmacokinetic model for the associated and dissociated species will be presented next to simulate the in vivo association of both drugs.

Series [2] is described as follows: GT localization in healthy versus 4T1 tumor bearing lung tissue. The format is in vivo, BALB/c mice. To be noted: for concentration at 1 h / concentration at 24 h / Kp at 1 h / Kp at 24 h: female, BALB/c, mouse, intravenous; for concentration at 24 h / Kp at 24 h: 24 hours after DcNP; for Kp at 1 h / Kp at 24 h: lung/plasma, read-out: Lung/Plasma Ratio. As to the method:
Female BALB/c mice were injected with 2×10^5 4 T1 metastatic breast cancer cells that express luciferase as a marker intravenously by tail vein on day 0. Stable expression of luciferase in these cells allows for bioluminescent monitoring of tumor growth and metastasis. Over a 14-day period, mouse behavior and health conditions were monitored daily and body weight measurements were taken every 2 days. […] The bioluminescence imaging was acquired through a XENOGEN IVIS 200 imaging system (PerkinElmer, Waltham, Mass.). The bioluminescence imaging parameters for live mice were set as follows: field of view, 24; excitation filter, closed; emission filter, open; exposure time, 180 sec; binning factor, 4; f/stop, 2. Bioluminescence intensity from mice were integrated using Live Image software (PerkinElmer, Waltham, Mass.). Mice were then intravenously administered GT in DcNPs at a dose of 50 mg/kg G and 5 mg/kg T or the same dose of drug in control suspension (CrEL) and sacrificed at fixed time points.
To determine whether DcNPs enhance GT distribution into target tissues, namely cancer nodules, the differential localization of GT in DcNP or CrEL form in healthy versus cancer nodule bearing mice was investigated. Since lungs are a common metastatic site for breast cancer disease progression, a model for metastasis that forms cancer nodules in the lungs was used. Cancer nodules were established in female BALB/c mice via intravenous inoculation of syngeneic breast cancer cells (4T1). […] Once nodules were established and confirmed with IVIS imaging, mice were administered with GT in either DcNP or conventionally solubilized form at equivalent doses (50/5 mg/kg, GT) and euthanized at pre-determined time intervals. Nodule-free and nodule-bearing lungs were harvested, and lung tissue drug concentrations were compared in these two groups.

The test system of series [3] is metastatic breast cancer. To be noted: cited from earlier work.
Series [4] is described as follows: Drug association efficiency (AE %) of GT DcNPs by dialysis under sink conditions. In kind it is physicochemical. To be noted: in vitro dialysis under sink conditions, 4 h, batches 1-5 and average. As to the method: Ethanol was removed by controlled solvent evaporation at 60° C., followed by vacuum desiccation to remove residual solvent. The dry film was rehydrated to 100 mM lipids in 0.45% NaCl with 20 mM NaHCO3 buffer at 60° C. for 2 h. Particle size was reduced at ˜40° C. using a bath sonicator (Avanti Polar Lipids, Inc. Alabaster, Ala.) (5 min on, […], 3 cycles). GT DcNP formulations were stored at room temperature for further use. Particle size was determined by a NICOMP 380 ZLS (Particle Sizing Systems, Santa Barbara, Calif.). Drug extraction with acetonitrile followed by HPLC were used to quantify drugs in formulations. Drug association was measured by dialysis (6-8 kDa) of DcNP against 0.9% NaCl 20 mM NaHCO3 buffer for 4 h and quantification by HPLC.
Drug association efficiency (AE %) was determined by dialyzing 100 μl of the DcNP suspension (6-8 k MWCO) against 1000×volume (100 mL, pH=7.4) of bicarbonate buffered saline for 4 hours at room temperature. Drugs were extracted by acetonitrile and drug concentrations in pre and post-dialysis DcNP suspensions were measured with a Shimadzu HPLC-UV system (Kyoto, Japan). Chromatographic separation was achieved using a Kinetex C18 column (100 Å, 5 μm, 4.6 mm×100 mm) (Phenomenex, Torrance, Calif.). The flow rate was set to 1.0 mL/min with a 10 μl sample injection volume. The mobile phase for separation consisted of pump A (Acetonitrile) and B (10 mM Ammonium Acetate in water). The gradient program used was as follows: pump B was set to 40%, and increased to 100% over 5 minutes. […] AE % was calculated as the […] concentrations of G or T.

Setting [5] is: lung, 1 hour after DcNP, 4T1 tumor bearing mice, read-out: Lung.
[6] abbreviates: lung, 1 hour after DcNP, Healthy mice, 50/5 mg/kg GT IV, read-out: Lung.
[7] abbreviates: lung, 1 hour after control (CrEL), 4T1 tumor bearing mice, 50/5 mg/kg GT IV, read-out: Lung.
[8] abbreviates: lung, 1 hour after control (CrEL), Healthy mice, 50/5 mg/kg GT IV, geometric mean ± SD, read-out: Lung.
Where [9] appears, read: lung, 4T1 tumor bearing mice, read-out: Lung.
The mark [10] stands for this setting: lung, Healthy mice, read-out: Lung.
Where [11] appears, read: 1 hour after DcNP, 4T1 tumor bearing mice.
Where [12] appears, read: 1 hour after DcNP, Healthy mice.
Setting [13] is: 1 hour after control (CrEL), 4T1 tumor bearing mice.
Setting [14] is: 1 hour after control (CrEL), Healthy mice.
Setting [15] is: plasma, 1 hour after DcNP, 4T1 tumor bearing mice, read-out: Plasma.
Setting [16] is: plasma, 1 hour after DcNP, Healthy mice, read-out: Plasma.
Setting [17] is: plasma, 1 hour after control (CrEL), 4T1 tumor bearing mice, read-out: Plasma.
Setting [18] is: plasma, 1 hour after control (CrEL), Healthy mice, read-out: Plasma.

In the case of `CC(=O)O[C@H]1C(=O)[C@@]2(C)[C@H]([C@H](OC(=O)c3ccccc3)[C@]3(O)C[C@H](OC(=O)[C@H](O)[C@@H](NC(=O)c4ccccc4)c4ccccc4)C(C)=C1C3(C)C)[C@]1(OC(C)=O)CO[C@@H]1C[C@@H]2O` [Paclitaxel, [(1S,2S,3R,4S,7R,9S,10S,12R,15S)-4,12-diacetyloxy-15-[(2R,3S)-3-benzamido-2-hydroxy-3-phenylpropanoyl]oxy-1,9-dihydroxy-10,14,17,17-tetramethyl-11-oxo-6-oxatetracyclo[11.3.1.0^3,10.0^4,7]heptadec-13-en-2-yl] benzoate], the “in vivo association to DcNPs per Eq. 1” value in series [1] (GT DcNP IV) is given as above 75%. In addition, in series [1] (GT DcNP IV), the “maximum dissociated fraction (fdiss. max), Eq. 1” value is on record as 26.6%. In addition, the “lung concentration, cancer nodule bearing mice times greater than healthy mice” value in series [2] (24 hours after GT DcNP) is 7 times. The concentration at 1 h is 900 ± 500 ng/g in series [2] (setting [5]); 600 ± 400 ng/g in series [2] (setting [6]); 1700 ± 500 ng/g in series [2] (setting [7]); 1000 ± 300 ng/g in series [2] (setting [8]); 2200 ± 1100 ng/mL in series [2] (setting [15]); 1400 ± 900 ng/mL in series [2] (setting [16]). Also, the concentration at 1 h in series [2] (setting [17]) is 700 ± 100 ng/mL; in series [2] (setting [18]) it was 300 ± 50 ng/mL. The values for the concentration at 24 h in series [2] (setting [9]) and in series [2] (setting [10]) were 400 ± 100 ng/g and 60 ± 10 ng/g, respectively. Also, the Kp at 1 h in series [2] (setting [11]) amounted to 0.4 ± 0.2; in series [2] (setting [12]), 0.4 ± 0.01; in series [2] (setting [13]), 2.5 ± 0.8; in series [2] (setting [14]) it was 3.3 ± 1.2. The Median survival in series [3] (first-line treatment, combination versus paclitaxel only) is recorded as 15.8 months. Further, the response rate in series [3] (gemcitabine 1250 mg/m^2 IV day 1, day 8 and paclitaxel 175 mg/m^2 IV combination compared to paclitaxel alone) is recorded as 26.2%.

`Nc1ccn([C@@H]2O[C@H](CO)[C@@H](O)C2(F)F)c(=O)n1` [Gemcitabine, 4-amino-1-[(2R,4R,5R)-3,3-difluoro-4-hydroxy-5-(hydroxymethyl)oxolan-2-yl]pyrimidin-2-one]: the “AE % (association efficiency of drug to DcNP)” value is 9% in series [4]; 9% and 9±1% in series [4] (listed as G); 10% and 8% and 7% in series [4] (listed as GEM); 9% in series [4] (listed as GEM, mean). Besides, in series [1] (GT DcNP IV), the “fraction of dissociated G accessible for metabolism (fdiss.G→dFdU), Eq. 2” value is given as 8%. Also, the “in vivo association to DcNPs per Eq. 1” value in series [1] (GT DcNP IV) was above 98%. Also, the “maximum dissociated fraction (fdiss. max), Eq. 1” value in series [1] (GT DcNP IV) is 1.6%. Further, in series [1] (after IV GT-DcNP administration, listed as G), the “G in DcNP dosage form not accessible for dFdU conversion / remaining associated to DcNPs in vivo” value is 92% and > 92%. Also, in series [2] (24 hours after GT DcNP), the “lung-to-plasma ratio, cancer nodule bearing mice times greater than healthy” value came out at 5 times. Further, the concentration at 1 h in series [2] (setting [5]) stood at 12500 ± 4900 ng/g; in series [2] (setting [6]), 7500 ± 1200 ng/g; in series [2] (setting [7]), 6000 ± 800 ng/g; in series [2] (setting [8]) it was 900 ± 400 ng/g; in series [2] (setting [15]) it was 72600 ± 60000 ng/mL; in series [2] (setting [16]), 52200 ± 64000 ng/mL. Also, the values for the concentration at 1 h in series [2] (setting [17]) and in series [2] (setting [18]) were 2800 ± 1400 ng/mL and 900 ± 200 ng/mL, respectively. The concentration at 24 h in series [2] (setting [9]) came out at 3500 ± 1000 ng/g; in series [2] (setting [10]), 300 ± 100 ng/g; in series [2] (plasma, 4T1 tumor bearing mice, read-out: Plasma), 34200 ± 600 ng/mL; in series [2] (plasma, Healthy mice, read-out: Plasma), 12700 ± 1500 ng/mL. The Kp at 1 h in series [2] (setting [11]) amounted to 0.2 ± 0.1; in series [2] (setting [12]) it was 0.1 ± 0.2; in series [2] (setting [13]), 2.2 ± 1.4; in series [2] (setting [14]), 0.9 ± 0.3. Further, the results for the Kp at 24 h in series [2] (4T1 tumor bearing mice) and in series [2] (Healthy mice) were 0.1 ± 0.03 and 0.02 ± 0.01, respectively.

(Values after US20230113802A1, “COMPOSITION AND METHOD TO PREPARE LONG-ACTING INJECTABLE SUSPENSION CONTAINING MULTIPLE CANCER DRUGS” (University of Washington, priority 2020, published 2023).)
